# Test results reported in patent US20170326100A1, “COMPOSITION FOR ACTIVATING LONGEVITY GENE” (AMOREPACIFIC CORPORATION, priority 2014, published 2017).
# “Also recorded” adds a separate entry of the source.
# Legend:
# [1] = system: XPD mRNA; test: XPD activation: relative expression of XPD mRNA in keratinocytes (TaqMan RT-PCR); type: cell-based, human; conditions: keratinocytes (NHK), 10 ppm, 37° C. 24 hours, control = 1.0
# Description: (§1) Experiment was conducted using normal human keratinocytes (NHK) and normal human fibroblasts (NHF) to investigate the effect of a methylated catechin. Specifically, 2×10^5 NHFs (normal human fibroblasts) purchased from Lonza (Allendale, N.J., USA) were cultured on a 60-mm dish at 37° C. for 24 hours using DMEM. The medium was discarded and the cells were transferred to a new tissue culture flask. Also, NHEKs (normal human epidermal keratinocytes, corresponding to NHK) purchased from Lonza (Allendale, N.J., USA) were cultured using a keratinocyte growth medium (KGM-GOLD, Lonza, Allendale, N.J., USA). The cells were detached with 0.025% trypsin and transferred to a new tissue culture flask after subculturing.
# (§2) Specifically, after treating the keratinocytes (NHK) and the fibroblasts (NHF) with each of retinol, green tea EGCG and green tea EGCG″3Me at 10 ppm, followed by incubation at 37° C. for 24 hours, total RNA was isolated from the cells and the relative expression of XPD mRNA was compared.
# (§3) The total RNA was isolated using TRIzol™ (Invitrogen, Carlsbad, Calif., USA) according to the manufacturer's protocol. RNA concentration was measured spectrophotometrically and RNA integrity was measured using BioAnalyzer 2100 (Agilent Technologies, Santa Clara, Calif., USA). 4 μg of RNA was reverse transcribed to cDNA using SuperScript®III reverse transcriptase (Invitrogen, Carlsbad, Calif., USA). The cDNA was stored at −70° C. The expression level of the target gene was measured by quantitative real-time TaqMan RT-PCR (7500Fast, Applied Biosystems, Foster City, Calif., USA). The cycle condition was 10 minutes at 95° C., 50 cycles of […] at 95° C. and 1 minute at 60° C.
# [2] = system: XPD mRNA; test: XPD activation: relative expression of XPD mRNA in fibroblasts (TaqMan RT-PCR); type: cell-based, human; conditions: fibroblasts (NHF), 10 ppm, 37° C. 24 hours, control = 1.0
# Description: as §1, §2, §3
# [3] = system: Klotho mRNA; test: Klotho activation: relative expression of Klotho mRNA in keratinocytes (TaqMan RT-PCR); type: cell-based, human; conditions: keratinocytes (NHK), 24 hours, control = 1.0
# Description: as §1
# as §2, with “of retinol (10 ppm),” for “of retinol,”, “EGCG (1 and 10 ppm)” for “EGCG”, “EGCG″3Me (1 and” for “EGCG″3Me at”, “10 ppm),” for “10 ppm,”, “of Klotho” for “of XPD”
# as §3
# [4] = system: Klotho mRNA; test: Klotho activation: relative expression of Klotho mRNA in fibroblasts (TaqMan RT-PCR); type: cell-based, human; conditions: fibroblasts (NHF), 24 hours, control = 1.0
# Description: as §1
# as §2, with “of retinol (10 ppm),” for “of retinol,”, “EGCG (1 and 10 ppm)” for “EGCG”, “EGCG″3Me (1 and” for “EGCG″3Me at”, “10 ppm),” for “10 ppm,”, “of Klotho” for “of XPD”
# as §3
# [5] = system: Sirt-1 mRNA; test: Sirt-1 activation: relative expression of Sirt-1 mRNA in keratinocytes (TaqMan RT-PCR); type: cell-based, human; conditions: keratinocytes (NHK), 10 ppm, 24 hours, control = 1.0
# Description: as §1
# (§4) Specifically, after treating the keratinocytes (NHK) and the fibroblasts (NHF) with each of retinol, green tea EGCG and green tea EGCG″3Me at 10 ppm, followed by incubation at 37° C. for 24 hours, total RNA was isolated from the cells and the relative expression of Sirt-1 mRNA was compared.
# as §3
# [6] = system: Sirt-1 mRNA; test: Sirt-1 activation: relative expression of Sirt-1 mRNA in fibroblasts (TaqMan RT-PCR); type: cell-based, human; conditions: fibroblasts (NHF), 10 ppm, 24 hours, control = 1.0
# Description: as §1, §4, §3
# [7] = system: ERCC8 mRNA; test: ERCC8 activation: relative expression of ERCC8 mRNA in keratinocytes (TaqMan RT-PCR); type: cell-based, human; conditions: keratinocytes (NHK), 10 ppm, 24 hours, control = 1.0
# Description: as §1
# (§5) Specifically, after treating the keratinocytes (NHK) and the fibroblasts (NHF) with each of retinol, green tea EGCG and green tea EGCG″3Me at 10 ppm, followed by incubation at 37° C. for 24 hours, total RNA was isolated from the cells and the relative expression of ERCC8 mRNA was compared.
# as §3
# [8] = system: ERCC8 mRNA; test: ERCC8 activation: relative expression of ERCC8 mRNA in fibroblasts (TaqMan RT-PCR); type: cell-based, human; conditions: fibroblasts (NHF), 10 ppm, 24 hours, control = 1.0
# Description: as §1, §5, §3
# [9] = system: Fox03 mRNA; test: FoxO3 activation: relative expression of Fox03 mRNA in keratinocytes (TaqMan RT-PCR); type: cell-based, human; conditions: keratinocytes (NHK), 10 ppm, 24 hours, control = 1.0
# Description: as §1
# (§6) Specifically, after treating the keratinocytes (NHK) and the fibroblasts (NHF) with each of retinol, green tea EGCG and green tea EGCG″3Me at 10 ppm, followed by incubation at 37° C. for 24 hours, total RNA was isolated from the cells and the relative expression of Fox03 mRNA was compared.
# as §3
# [10] = system: Fox03 mRNA; test: FoxO3 activation: relative expression of Fox03 mRNA in fibroblasts (TaqMan RT-PCR); type: cell-based, human; conditions: fibroblasts (NHF), 10 ppm, 24 hours, control = 1.0
# Description: as §1, §6, §3
# [11] = system: normal human epidermal keratinocytes (NHEKs); test: Evaluation of cellular differentiation of keratinocytes; type: cell-based; conditions: various concentrations, 48 hours, FIG. 1
# Description: In order to investigate the effect of the methylated catechin on the differentiation of keratinocytes, normal human epidermal keratinocytes (NHEKs) were treated with EGCG″3Me and EGCG at various concentrations for 48 hours.
Molecule,relative expression of XPD mRNA [1],relative expression of XPD mRNA [2],relative expression of Klotho mRNA ([3]; 1 ppm),relative expression of Klotho mRNA ([3]; 10 ppm),relative expression of Klotho mRNA ([4]; 1 ppm),relative expression of Klotho mRNA ([4]; 10 ppm),relative expression of Sirt-1 mRNA [5],relative expression of Sirt-1 mRNA [6],relative expression of ERCC8 mRNA [7],relative expression of ERCC8 mRNA [8],relative expression of Fox03 mRNA [9],relative expression of Fox03 mRNA [10],differentiation of keratinocytes [11]
epigallocatechin-3-O-(3-O-methyl)gallate [Green tea EGCG3″Me],21.4,6.9,4.2,10.5,1.7,2.1,17.1,4.3,4.3,5.1,3.2,5.3,promoted the differentiation of the keratinocytes in a concentration-dependent manner; also recorded: superior differentiation of the keratinocytes at low concentration as compared to EGCG
CC1=C(/C=C/C(C)=C/C=C/C(C)=C/CO)C(C)(C)CCC1 [Retinol],10.1,2.4,,9.8,,2.2,7.9,1.9,1.2,1.0,1.1,1.4,
"O=C(O[C@@H]1Cc2c(O)cc(O)cc2O[C@@H]1c1cc(O)c(O)c(O)c1)c1cc(O)c(O)c(O)c1 [Green tea EGCG, epigallocatechin gallate]",9.2,2.8,2.5,10.2,1.2,1.8,8.2,2.0,1.9,2.3,1.4,2.1,
